Data reported in PMC10385824, “Antiproliferative and Tubulin-Destabilising Effects of 3-(Prop-1-en-2-yl)azetidin-2-Ones and Related Compounds in MCF-7 and MDA-MB-231 Breast Cancer Cells” (Pharmaceuticals, 2023).
Read-outs that look alike come from different tables or passages of the source.

How the values were obtained:
SF295 = assay: NCI-60 SRB screen, CNS cancer; assay type: cell-based, human; conditions: SF-295, 48 h; for GI50: Homo sapiens, SF295, five dose 0.01–100 µM, read-out: GI50
UO-31 = assay: NCI-60 SRB screen, renal cancer; assay type: cell-based, human; conditions: UO-31, 48 h; for GI50: Homo sapiens, five dose 0.01–100 µM, read-out: GI50
OVCAR-8 = assay: NCI-60 SRB screen, ovarian cancer; assay type: cell-based, human; conditions: OVCAR-8, 48 h; for GI50: Homo sapiens, five dose 0.01–100 µM, read-out: GI50
[1] = test system: MDA-MB-231 human breast cancer cells; assay: Alamar Blue cell viability (antiproliferative) assay; assay type: cell-based; conditions: read-out: IC50
K-562 = assay: NCI-60 SRB screen, leukemia; assay type: cell-based, human; conditions: for GI50: Homo sapiens, K562, 48 h, read-out: GI50
NCI/ADR-RES = assay: NCI-60 SRB screen, ovarian cancer; assay type: cell-based, human; conditions: 48 h; for GI50: Homo sapiens, five dose 0.01–100 µM, read-out: GI50
SK-MEL-2 = assay: NCI-60 SRB screen, melanoma; assay type: cell-based, human; conditions: SK-MEL-2, 48 h; for GI50: Homo sapiens, five dose 0.01–100 µM, read-out: GI50
HS 578T = assay: NCI-60 SRB screen, breast cancer; assay type: cell-based; conditions: Homo sapiens; HS 578T; five dose 0.01–100 µM, 48 h; read-out: GI50
SK-MEL-28 = assay: NCI-60 SRB screen, melanoma; assay type: cell-based, human; conditions: SK-MEL-28, 48 h; for GI50: Homo sapiens, five dose 0.01–100 µM, read-out: GI50
DU-145 = assay: NCI-60 SRB screen, prostate cancer; assay type: cell-based, human; conditions: DU-145, 48 h; for GI50: Homo sapiens, five dose 0.01–100 µM, read-out: GI50
SK-OV-3 = assay: NCI-60 SRB screen, ovarian cancer; assay type: cell-based, human; conditions: SK-OV-3, 48 h; for GI50: Homo sapiens, five dose 0.01–100 µM, read-out: GI50
NCI-H552 = assay: NCI-60 SRB screen, non-small cell lung cancer; assay type: cell-based, human; conditions: 48 h; for GI50: Homo sapiens, NCI-H552, five dose 0.01–100 µM, read-out: GI50
SF539 = assay: NCI-60 SRB screen, CNS cancer; assay type: cell-based, human; conditions: SF-539, 48 h
MDA-MB-231/ATCC = assay: NCI-60 SRB screen, breast cancer; assay type: cell-based, human; conditions: 48 h; for GI50 / IC50: Homo sapiens; for GI50: five dose 0.01–100 µM, read-out: GI50; for IC50: MDA-MB-231, obtained from NCI, five concentrations 0.01–100 μM, read-out: Antiproliferative Activity IC50
SK-MEL-5 = assay: NCI-60 SRB screen, melanoma; assay type: cell-based, human; conditions: SK-MEL-5, 48 h; for GI50: Homo sapiens, five dose 0.01–100 µM, read-out: GI50
NCI-H23 = assay: NCI-60 SRB screen, non-small cell lung cancer; assay type: cell-based, human; conditions: NCI-H23, 48 h; for GI50: Homo sapiens, five dose 0.01–100 µM, read-out: GI50
MDA-MB-468 = assay: NCI-60 SRB screen, breast cancer; assay type: cell-based, human; conditions: MDA-MB-468, 48 h; for GI50: Homo sapiens, five dose 0.01–100 µM, read-out: GI50
SNB-75 = assay: NCI-60 SRB screen, CNS cancer; assay type: cell-based, human; conditions: SNB-75, 48 h; for GI50: Homo sapiens, five dose 0.01–100 µM, read-out: GI50
MOLT-4 = assay: NCI-60 SRB screen, leukemia; assay type: cell-based, human; conditions: MOLT-4, 48 h; for GI50: Homo sapiens, five dose 0.01–100 µM, read-out: GI50
RXF 393 = assay: NCI-60 SRB screen, renal cancer; assay type: cell-based, human; conditions: RXF 393, 48 h; for GI50: Homo sapiens, five dose 0.01–100 µM, read-out: GI50
NCI-H460 = assay: NCI-60 SRB screen, non-small cell lung cancer; assay type: cell-based, human; conditions: NCI-H460, 48 h; for GI50: Homo sapiens, five dose 0.01–100 µM, read-out: GI50
MALME-3M = assay: NCI-60 SRB screen, melanoma; assay type: cell-based, human; conditions: MALME-3M, 48 h; for GI50: Homo sapiens, five dose 0.01–100 µM, read-out: GI50
NCI-H332M = assay: NCI-60 SRB screen, non-small cell lung cancer; assay type: cell-based; conditions: Homo sapiens, five dose 0.01–100 µM, 48 h, read-out: GI50
RPMI-8226 = assay: NCI-60 SRB screen, leukemia; assay type: cell-based, human; conditions: RPMI-8226, 48 h; for GI50: Homo sapiens, five dose 0.01–100 µM, read-out: GI50
PC-3 = assay: NCI-60 SRB screen, prostate cancer; assay type: cell-based, human; conditions: PC-3, 48 h; for GI50: Homo sapiens, five dose 0.01–100 µM, read-out: GI50
M14 = assay: NCI-60 SRB screen, melanoma; assay type: cell-based, human; conditions: M14, 48 h; for GI50: Homo sapiens, five dose 0.01–100 µM, read-out: GI50
OVCAR-4 = assay: NCI-60 SRB screen, ovarian cancer; assay type: cell-based, human; conditions: OVCAR-4, 48 h; for GI50: Homo sapiens, five dose 0.01–100 µM, read-out: GI50
MCF-7 = assay: cells; conditions: Homo sapiens; for GI50: MCF7, 48 h
OVCAR-3 = assay: NCI-60 SRB screen, ovarian cancer; assay type: cell-based, human; conditions: OVCAR-3, 48 h; for GI50: Homo sapiens, five dose 0.01–100 µM, read-out: GI50
T-47D = assay: NCI-60 SRB screen, breast cancer; assay type: cell-based, human; conditions: T-47D, 48 h; for GI50: Homo sapiens, T47D, five dose 0.01–100 µM, read-out: GI50
HOP-62 = assay: NCI-60 SRB screen, non-small cell lung cancer; assay type: cell-based, human; conditions: HOP-62, 48 h; for GI50: Homo sapiens, five dose 0.01–100 µM, read-out: GI50

## C=C(C)C1C(=O)N(c2cc(OC)c(OC)c(OC)c2)C1c1ccc(OC)c(O)c1 (centres unmarked) [9q, 4-(3-Hydroxy-4-methoxyphenyl)-1-(3,4,5-trimethoxyphenyl)-3-(prop-1-en-2-yl)azetidin-2-one]
SF295
  GI50: < 0.01 µM
SF295; one dose 10 µM
  % Growth: 20.26%
UO-31
  GI50: 0.0878 µM
UO-31; one dose 10 µM
  % Growth: 29.39%
OVCAR-8
  GI50: < 0.01 µM
OVCAR-8; one dose 10 µM
  % Growth: 14.64%
[1]
  IC50: 0.0239 µM
K-562
  GI50: 0.0352 µM
K-562; K-562, one dose 10 µM, 48 h
  % Growth: 2.20%
NCI/ADR-RES
  GI50: < 0.01 µM
NCI/ADR-RES; one dose 10 µM
  % Growth: -2.95%
SK-MEL-2
  GI50: 0.0446 µM
SK-MEL-2; one dose 10 µM
  % Growth: 9.55%
HS 578T
  GI50: 0.0106 µM
SK-MEL-28
  GI50: 64.3 µM
SK-MEL-28; one dose 10 µM
  % Growth: 65.72%
DU-145; one dose 10 µM
  % Growth: -52.00%
DU-145
  GI50: 0.0215 µM
SK-OV-3
  GI50: 0.0304 µM
SK-OV-3; one dose 10 µM
  % Growth: 8.15%
NCI-H552
  GI50: < 0.01 µM
NCI-H552; NCI-H522, one dose 10 µM
  % Growth: -43.45%
SF539; one dose 10 µM
  % Growth: -8.30%
MDA-MB-231/ATCC; MDA-MB-231/ATCC
  GI50: 0.0168 µM
MDA-MB-231/ATCC
  IC50: 0.0239 µM
MDA-MB-231/ATCC; MDA-MB-231/ATCC, one dose 10 µM
  % Growth: -6.67%
SK-MEL-5
  GI50: 0.0124 µM
SK-MEL-5; one dose 10 µM
  % Growth: -0.90%
NCI-H23
  GI50: 0.0237 µM
NCI-H23; one dose 10 µM
  % Growth: 14.46%
MDA-MB-468
  GI50: < 0.01 µM
MDA-MB-468; one dose 10 µM
  % Growth: 13.36%
SNB-75
  GI50: 0.0473 µM
SNB-75; one dose 10 µM
  % Growth: 41.90%
MOLT-4
  GI50: 0.0202 µM
MOLT-4; one dose 10 µM
  % Growth: -15.34%
RXF 393
  GI50: 0.0428 µM
RXF 393; one dose 10 µM
  % Growth: 18.79%
NCI-H460
  GI50: 0.03 µM
NCI-H460; one dose 10 µM
  % Growth: 3.52%
MALME-3M
  GI50: 20.5 µM
MALME-3M; one dose 10 µM
  % Growth: 63.23%
NCI-H332M; […]
  GI50: 0.0477 µM
RPMI-8226
  GI50: 0.0111 µM
RPMI-8226; one dose 10 µM
  % Growth: 11.06%
PC-3
  GI50: 0.0201 µM
PC-3; one dose 10 µM
  % Growth: 27.31%
M14
  GI50: 0.0173 µM
M14; one dose 10 µM
  % Growth: 3.41%
OVCAR-4
  GI50: < 0.01 µM
OVCAR-4; one dose 10 µM
  % Growth: 25.51%
MCF-7; MCF7
  IC50: < 0.01 µM
MCF-7
  GI50: < 0.01 µM
MCF-7; MCF7, read-out: LC50
  CC50: > 100 µM
OVCAR-3
  GI50: 0.0207 µM
OVCAR-3; one dose 10 µM
  % Growth: -40.14%
T-47D
  GI50: > 100 µM
T-47D; one dose 10 µM
  % Growth: 67.35%
HOP-62; one dose 10 µM
  % Growth: 22.22%
HOP-62
  GI50: 0.0521 µM

## C=CCC1C(=O)N(c2cc(OC)c(OC)c(OC)c2)C1c1ccc(OC)c(O)c1 (centres unmarked) [10p, 4-(3-Hydroxy-4-methoxyphenyl)-1-(3,4,5-trimethoxyphenyl)-3-allylazetidin-2-one]
SF295
  GI50: 0.0291 µM
UO-31
  GI50: 0.0858 µM
OVCAR-8
  GI50: 0.034 µM
[1]
  IC50: 0.027 µM
K-562
  GI50: 0.0431 µM
NCI/ADR-RES
  GI50: 0.0206 µM
SK-MEL-2
  GI50: 0.301 µM
HS 578T
  GI50: 0.0517 µM
SK-MEL-28
  GI50: 76.2 µM
DU-145
  GI50: 0.0266 µM
SK-OV-3
  GI50: 0.0366 µM
NCI-H552
  GI50: 0.0151 µM
SF539; Homo sapiens, SF539, five dose 0.01–100 µM, read-out: GI50
  GI50: 0.0382 µM
MDA-MB-231/ATCC; MDA-MB-231/ATCC
  GI50: 0.024 µM
MDA-MB-231/ATCC
  IC50: 0.0274 µM
SK-MEL-5
  GI50: 0.0249 µM
NCI-H23
  GI50: 0.0307 µM
MDA-MB-468
  GI50: 0.025 µM
SNB-75
  GI50: 0.0448 µM
MOLT-4
  GI50: 0.0408 µM
RXF 393
  GI50: 0.041 µM
NCI-H460
  GI50: 0.032 µM
MALME-3M
  GI50: 0.0306 µM
NCI-H332M
  GI50: 0.0512 µM
RPMI-8226
  GI50: 0.0406 µM
PC-3
  GI50: 0.0403 µM
M14
  GI50: 0.0176 µM
OVCAR-4
  GI50: 0.0397 µM
MCF-7
  GI50: 0.0353 µM
OVCAR-3
  GI50: 0.0233 µM
T-47D
  GI50: 63.5 µM
HOP-62
  GI50: 0.061 µM
